Results as given in patent publication US7282608B2, “Inhibitors of histone deacetylase” (Methylgene, Inc., priority 2002, dated 2007).

Tests used:
[1] = molecular target: T1, cloned recombinant human HDAC-1 (Homo sapiens, UniProt Q13547); experiment: Human HDAC-1 Assay 1: [3H]-acetylated histone deacetylase assay; assay type: biochemical; conditions: Assay 1, unbracketed data; [3H]-acetylated histone substrate, 10 min at 37° C.
T1 construct: made in house; host or cells: Baculovirus insect cell expression system
Description: HDAC inhibitors were screened against a cloned recombinant human HDAC-1 enzyme expressed and purified from a Baculovirus insect cell expression system. For deacetylase assays, 20,000 cpm of the [^3H]-metabolically labeled acetylated histone substrate (M. Yoshida et al., J. Biol. Chem. 265(28): 17174–17179 (1990)) was incubated with 30 μg of the cloned recombinant hHDAC-1 for 10 minutes at 37° C. The reaction was stopped by adding acetic acid (0.04 M, final concentration) and HCl (250 mM, final concentration). […] For inhibition studies, the enzyme was preincubated with compounds at 4° C. for 30 minutes prior to initiation of the enzymatic assay. IC50 values for HDAC enzyme inhibitors were determined by performing dose response curves with individual compounds and determining the concentration of inhibitor producing fifty percent of the maximal inhibition. IC50 values for representative compounds assayed using this procedure are presented in the third column of Tables 7–10 (excepting bracketed data).

HCT116 cells = experiment: MTT assay; assay type: cell-based; conditions: Homo sapiens, HCT-116, 72 hours
Description: HCT116 cells (2000/well) were plated into 96-well tissue culture plates one day before compound treatment. Compounds at various concentrations were added to the cells. The cells were incubated for 72 hours at 37° C. in 5% CO2 incubator. MTT (3-[4,5-dimethylthiazol-2-yl]-2,5 diphenyl tetrazolium bromide, Sigma) was added at a final concentration of 0.5 mg/ml and incubated with the cells for 4 hours before one volume of solubilization buffer (50% N,N-dimethylformamide, 20% SDS, pH 4.7) was added onto the cultured cells. After overnight incubation, solubilized dye was quantified by colorimetric reading at […] using a reference at […] using an MR700 plate reader (Dynatech Laboratories Inc.). OD values were converted to cell numbers according to a standard growth curve of the relevant cell line. The concentration which reduces cell numbers to 50% of that of solvent treated cells is determined as MTT IC50. IC50 values for representative compounds are presented in the fourth column of Tables 7–10.

[2] = tested on: acetylated histone H-4 in T24 human bladder cancer cells; experiment: Histone H4 acetylation in whole cells by immunoblots; assay type: cell-based; conditions: 16 h, immunoblot densitometry, read-out: H4 Ac (T24) EC50
Description: T24 human bladder cancer cells growing in culture were incubated with HDAC inhibitors for 16 h. Histones were extracted from the cells after the culture period as described by M. Yoshida et al. (J. Biol. Chem. 265(28): 17174–17179 (1990)). […] of total histone protein was loaded onto SDS/PAGE and transferred to nitrocellulose membranes. Membranes were probed with polyclonal antibodies specific for acetylated histone H-4 (Upstate Biotech Inc.), followed by horse radish peroxidase conjugated secondary antibodies (Sigma). Enhanced Chemiluminescence (ECL) (Amersham) detection was performed using Kodak films (Eastman Kodak). Acetylated H-4 signal was quantified by densitometry. Representative data are presented in the fifth column of Table 7–10. Data are presented as the concentration effective for […] the acetylated H-4 signal by 50% (EC50).

[3] = tested on: HCT116 human colorectal carcinoma cells; experiment: Antineoplastic effects on human tumor xenografts in vivo; parameters: species or system CD1 nude mice; conditions: HCT116 xenograft, daily injection i.v., s.c. or i.p., starting dose 10 mg/kg
Description: Eight to ten week old female CD1 nude mice (Taconic Labs, Great Barrington, N.Y.) were injected subcutaneously in the flank area with 2×10^6 preconditioned HCT116 human colorectal carcinoma cells. Preconditioning of these cells was done by a minimum of three consecutive tumor transplantations in the same strain of nude mice. Subsequently, tumor fragments of approximately 30 mgs were excised and implanted subcutaneously in mice, in the left flank area, under Forene anesthesia (Abbott Labs, Geneva, Switzerland). When the tumors reached a mean volume of 100 mm^3, the mice were treated intravenously, subcutaneously, or intraperitoneally by daily injection, with a solution of the histone deacetylase inhibitor in an appropriate vehicle, such as PBS, DMSO/water, or Tween 80/water, at a starting dose of 10 mg/kg. The optimal dose of the HDAC inhibitor was established by dose response experiments according to standard protocols. Tumor volume was calculated every second day post infusion according to standard methods (e.g., Meyer et al., Int. J. Cancer 43: 851–856 (1989)).

Human HDAC-1 = Human HDAC-1 (Homo sapiens, UniProt Q13547); experiment: Human HDAC-1 Assay 2: Boc-Lys(Ac)-AMC fluorescence assay; assay type: biochemical; conditions: Assay 2, bracketed [ ] data; Boc-Lys(Ac)-AMC substrate
Description: In the alternative, the following protocol was used to assay the compounds of the invention. In the assay, the buffer used was 25 mM HEPES, pH 8.0, 137 mM NaCl, 2.7 mM KCl, 1 mM MgCl2 and the subtrate was Boc-Lys(Ac)-AMC in a 50 mM stock solution in DMSO. The enzyme stock solution was 4.08 μg/mL in buffer.
The compounds were pre-incubated (2 μl in DMSO diluted to 13 μl in buffer for transfer to assay plate) with enzyme (20 μl of 4.08 μg/ml) for 10 minutes at room temperature (35 μl pre-incubation volume). The mixture was pre-incubated for 5 minutes at room temperature. The reaction was started by bringing the temperature to 37° C. and adding […] substrate. Total reaction volume was 50 μl. The reaction was stopped after 20 minutes by addition of 50 μl developer, prepared as directed by Biomol (Fluor-de-Lys developer, Cat. # KI-105). A plate was incubated in the dark for 10 minutes at room temperature before reading (λEX=360 nm, λEx=470 nm, Cutoff filter at 435 nm).
IC50 values for representative compounds assayed using this procedure are presented in the third column of Table 9 (bracketed [ ] data).

Chain of Human HDAC-1 (Q13547 whole entry): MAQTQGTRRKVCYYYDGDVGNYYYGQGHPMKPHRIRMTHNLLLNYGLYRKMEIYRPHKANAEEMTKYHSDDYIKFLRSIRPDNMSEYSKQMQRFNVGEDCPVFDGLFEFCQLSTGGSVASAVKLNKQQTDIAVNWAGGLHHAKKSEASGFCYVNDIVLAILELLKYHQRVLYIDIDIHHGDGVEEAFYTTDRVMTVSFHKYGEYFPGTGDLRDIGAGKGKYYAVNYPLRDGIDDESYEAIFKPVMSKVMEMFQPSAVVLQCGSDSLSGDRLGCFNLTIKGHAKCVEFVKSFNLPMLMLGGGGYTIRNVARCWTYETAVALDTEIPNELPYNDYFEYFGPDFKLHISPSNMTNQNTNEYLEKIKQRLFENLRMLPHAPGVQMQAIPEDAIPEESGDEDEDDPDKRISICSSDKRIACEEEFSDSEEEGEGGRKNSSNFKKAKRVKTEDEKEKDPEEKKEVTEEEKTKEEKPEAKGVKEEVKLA
T1 sequence (Q13547 whole entry): as above

SMILES | IC50 [1] | IC50 (HCT116 cells) | EC50 [2] | IC50 (Human HDAC-1) | reduction in tumor weight and volume relative to vehicle controls [3]
Nc1ccccc1NC(=O)c1ccc(/C=C/C(=O)NCCc2c[nH]c3ccccc23)cc1 [Vj, N-(2-Amino-phenyl)-4-{2-[2-(1H-indol-3-yl)-ethylcarbamoyl]-vinyl}-benzamide] | 1 µM | 0.3 µM | 1 µM |  | 
COc1ccc(NC/C=C/c2ccc(C(=O)Nc3ccccc3N)cc2)cc1OC1CCCC1 [XVa, N-(2-Amino-phenyl)-4-[3-(3-cyclopentyloxy-4-methoxy-phenylamino)-propenyl]-benzamide] | 2 µM | 1 µM | 1 µM |  | 
COc1cc(NC/C=C/c2ccc(C(=O)Nc3ccccc3N)cc2)cc(OC)c1OC [XVb, N-(2-Amino-phenyl)-4[3-(3,4,5-trimethoxy-phenylamino)-propenyl]-benzamide] | 4 µM | 0.1 µM | 3 µM |  | 
COc1cc(C)nc(NC/C=C/c2ccc(C(=O)Nc3ccccc3N)cc2)n1 [XVd, N-(2-Amino-phenyl)-4-[3-(4-methoxy-6-methyl-pyrimidin-2-ylamino)-propenyl]-benzamide] | 4 µM | 0.3 µM | 3 µM |  | 
CSc1nc(NC/C=C/c2ccc(C(=O)Nc3ccccc3N)cc2)n[nH]1 [XVe, N-(2-Amino-phenyl)-4-[3-(5-methylsulfanyl-1H-[1,2,4]triazol-3-ylamino)-propenyl]-benzamide] | 2 µM | 0.5 µM | 1 µM |  | 
CC(=O)c1cc2c(cc1NC/C=C/c1ccc(C(=O)Nc3ccccc3N)cc1)OCO2 [XVf] | 3 µM | 1 µM | 2 µM |  | 
COc1ccc(NC/C=C/c2ccc(C(=O)Nc3ccccc3N)cc2)cc1OC [XVi, N-(2-Amino-phenyl)-4-[3-(3,4-dimethoxy-phenylamino)-propenyl]-benzamide] | 1 µM | 1 µM | 4 µM |  | 
Nc1ccccc1NC(=O)c1ccc(/C=C/CNc2nccc(-c3cccnc3)n2)cc1 [XVj, N-(2-Amino-phenyl)-4-[3-(4-pyridin-3-yl-pyrimidin-2-ylamino)-propenyl]-benzamide] | 2 µM | 0.2 µM | < 1 µM |  | significant reduction in tumor weight and volume
Nc1ccccc1NC(=O)c1ccc(/C=C/C(=O)c2ccccc2[N+](=O)[O-])cc1 [XXIVb, N-(2-Amino-phenyl)-4-[3-(2-nitro-phenyl)-3-oxo-propenyl]-benzamide] | 8 µM | 0.1 µM | 3 µM |  | 
COc1ccc(C(=O)/C=C/c2ccc(C(=O)Nc3ccccc3N)cc2)cc1 [XXIVc, N-(2-Amino-phenyl)-4-[3-(4-methoxy-phenyl)-3-oxo-propenyl]-benzamide] | 13 µM | 0.6 µM | 5 µM |  | 
COc1cccc(C(=O)/C=C/c2ccc(C(=O)Nc3ccccc3N)cc2)c1 [XXIVd, N-(2-Amino-phenyl)-4-[3-(3-methoxy-phenyl)-3-oxo-propenyl]-benzamide] | 4 µM | 0.3 µM | < 5 µM |  | 
COc1ccccc1C(=O)/C=C/c1ccc(C(=O)Nc2ccccc2N)cc1 [XXIVe, N-(2-Amino-phenyl)-4-[3-(2-methoxy-phenyl)-3-oxo-propenyl]-benzamide] | 3 µM | 0.8 µM | 5 µM |  | 
Nc1ccccc1NC(=O)c1ccc(CCC(=O)c2ccccc2)cc1 [XXVIIa, N-(2-Amino-phenyl)-4-(3-oxo-3-phenyl-propyl)-benzamide] | 2 µM | 0.6 µM | 2 µM |  | 

Now from value to compound, other results behind:

IC50 [1] | IC50 (HCT116 cells) | EC50 [2] | IC50 (Human HDAC-1) | SMILES | reduction in tumor weight and volume relative to vehicle controls [3]
0.8 µM | 1 µM | < 1 µM |  | Nc1ccccc1NC(=O)c1ccc(/C=C/CNc2nc3ccccc3s2)cc1 [XVc, N-(2-Amino-phenyl)-4-[3-(benzothiazol-2-ylamino)-propenyl]-benzamide] | 
4 µM | 0.7 µM | 2 µM |  | Nc1ccccc1NC(=O)c1ccc(/C=C/CNCc2cccnc2)cc1 [XVh, N-(2-Amino-phenyl)-4-{3-[(pyridin-3-ylmethyl)-amino]propenyl}-benzamide] | 
4 µM | 0.4 µM | 3 µM |  | Nc1ccccc1NC(=O)c1ccc(/C=C/C(=O)c2ccccc2)cc1 [XXIVa, N-(2-Amino-phenyl)-4-(3-oxo-3-phenyl-propenyl)-benzamide] | 
10 µM | 0.3 µM | 3 µM |  | Nc1ccccc1NC(=O)c1ccc(/C=C/C(=O)c2ccc(N3CCOCC3)cc2)cc1 [XXIVf, N-(2-Amino-phenyl)-4-[3-(4-morpholin-4-yl-phenyl)-3-oxo-propenyl]-benzamide] | 
 | 1 µM | 4 µM | 0.26 µM | Nc1ccccc1NC(=O)c1ccc(/C=C/CN2Cc3ccccc3C2)cc1 [XXXa, N-(2-Amino-phenyl)-4-[3-(1,3-dihydro-isoindol-2-yl)-propenyl]-benzamide] | 
4 µM | 1 µM | 2 µM |  | Nc1ccccc1NC(=O)c1ccc(/C=C/CN2CCN(Cc3ccccc3)CC2)cc1 [XXXb, N-(2-Amino-phenyl)-4-[3-(4-benzyl-piperazin-1-yl)-propenyl]-benzamide] | 
 | 0.5 µM | 2 µM | 0.82 µM | Nc1ccccc1NC(=O)c1ccc(/C=C/CN2CCN(c3ccccn3)CC2)cc1 [XXXc, N-(2-Amino-phenyl)-4-[3-(4-pyridin-2-yl-piperazin-1-yl)-propenyl]-benzamide] | 
 | 2 µM |  | 0.17 µM | CN(C/C=C/c1ccc(C(=O)Nc2ccccc2N)cc1)Cc1ccccc1 [XXXd, N-(2-Amino-phenyl)-4-[3-(benzyl-methyl-amino)-propenyl]-benzamide] | 
 | 2 µM |  | 0.79 µM | Nc1ccccc1NC(=O)c1ccc(/C=C/CNC2Cc3ccccc3C2)cc1 [XXXe, N-(2-Amino-phenyl)-4-[3-(indan-2-ylamino)-propenyl]-benzamide] | 
